Reference: patent publication US10221139B2, “Inhibitors of histone demethylases” (Gilead Sciences, Inc., priority 2012, dated 2019)

Experiments:
Format in all cases: cell-based
PLU1 (KDM5B) = target: T1, PLU1 (KDM5B) (Homo sapiens, UniProt Q9UGL1); assay: Immunofluorescence assay in U2OS cells transfected with pCMVHA PLU1 (H3K4me2 mark); conditions: 20 hours
T1 construct: (1-752); host or cells: U2OS
T1 sequence (Q9UGL1 1-752): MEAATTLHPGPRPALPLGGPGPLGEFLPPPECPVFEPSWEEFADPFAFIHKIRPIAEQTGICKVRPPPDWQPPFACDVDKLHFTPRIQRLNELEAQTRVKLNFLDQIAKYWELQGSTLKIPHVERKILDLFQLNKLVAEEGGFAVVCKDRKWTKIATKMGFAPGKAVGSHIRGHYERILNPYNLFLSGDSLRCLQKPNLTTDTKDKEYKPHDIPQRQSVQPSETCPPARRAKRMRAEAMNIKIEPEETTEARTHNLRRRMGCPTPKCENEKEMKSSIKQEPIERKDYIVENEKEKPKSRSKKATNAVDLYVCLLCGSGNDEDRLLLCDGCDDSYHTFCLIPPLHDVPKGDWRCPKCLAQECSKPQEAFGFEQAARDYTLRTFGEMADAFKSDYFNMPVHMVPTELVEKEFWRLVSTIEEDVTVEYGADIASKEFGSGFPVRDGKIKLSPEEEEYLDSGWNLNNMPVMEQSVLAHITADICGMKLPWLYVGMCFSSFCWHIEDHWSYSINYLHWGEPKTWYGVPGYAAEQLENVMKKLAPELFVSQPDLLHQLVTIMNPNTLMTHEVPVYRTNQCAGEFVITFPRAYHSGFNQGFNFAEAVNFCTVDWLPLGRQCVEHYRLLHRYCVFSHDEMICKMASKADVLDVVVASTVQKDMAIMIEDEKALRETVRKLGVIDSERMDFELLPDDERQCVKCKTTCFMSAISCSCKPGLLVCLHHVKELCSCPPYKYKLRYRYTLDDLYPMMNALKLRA
Description: (§1) U2OS cells were seeded 24 hours before transfection. Transfection was performed with Fugene HD transfection reagent as recommended by the manufacturer. 6 hours after transfection, the cells were harvested and seeded into multi well plates into media containing compound. The media used was DMEM containing 5% FBS and pen/strep. 20 hours after incubation of cells with compounds, the cells were washed once in PBS, harvested by fixation with formaldehyde 4% aqueous solution, and washed 2 times in PBS. Subsequently, the cells were permeabilized in PBS with 0.2% Triton X-100 for 10 min at room temperature. Blocking was performed in PBS with 0.2% Triton X-100 and 5% FBS for 45 min at room temperature. The cells were incubated with primary antibodies diluted 1 μg/ml in blocking solution over night at 4° C. The primary antibodies used in the assays were HA.11 (Covance, MMS-101P) and the antibody detecting the mark specified in the Table 6 below. After incubation with primary antibodies, the cells were washed 3 times with PBS, incubated with secondary antibodies diluted 1:1000 (Alexa fluor 594 goat anti rabbit IgG, Invitrogen, A11012; Alexa flour 488 donkey anti mouse IgG, Invitrogen, A21202) and Hoechst, 20 μg/ml (Sigma, 33342) in blocking solution, and washed again 3 times with PBS. Finally, PBS was added and high throughput imaging and analysis were performed by an IN Cell Analyzer 1000 (GE Healthcare). The robot software analyzed individual cells and divided these into HA^+ (transfected cells) and HA^− (non-transfected cells). The IC50 values in Table 7 below were based on an average measure of the staining of the mark specified in the Table 6 below in the transfected cells.

GASC1 (KDM4C) = target: T2, GASC1 (KDM4C) (Homo sapiens, UniProt Q9H3R0); assay: Immunofluorescence assay in U2OS cells transfected with pCMVHA JMJD2C (H3K9me3 mark); conditions: 20 hours
T2 construct: Full length; host or cells: U2OS
T2 sequence (Q9H3R0 1-1056): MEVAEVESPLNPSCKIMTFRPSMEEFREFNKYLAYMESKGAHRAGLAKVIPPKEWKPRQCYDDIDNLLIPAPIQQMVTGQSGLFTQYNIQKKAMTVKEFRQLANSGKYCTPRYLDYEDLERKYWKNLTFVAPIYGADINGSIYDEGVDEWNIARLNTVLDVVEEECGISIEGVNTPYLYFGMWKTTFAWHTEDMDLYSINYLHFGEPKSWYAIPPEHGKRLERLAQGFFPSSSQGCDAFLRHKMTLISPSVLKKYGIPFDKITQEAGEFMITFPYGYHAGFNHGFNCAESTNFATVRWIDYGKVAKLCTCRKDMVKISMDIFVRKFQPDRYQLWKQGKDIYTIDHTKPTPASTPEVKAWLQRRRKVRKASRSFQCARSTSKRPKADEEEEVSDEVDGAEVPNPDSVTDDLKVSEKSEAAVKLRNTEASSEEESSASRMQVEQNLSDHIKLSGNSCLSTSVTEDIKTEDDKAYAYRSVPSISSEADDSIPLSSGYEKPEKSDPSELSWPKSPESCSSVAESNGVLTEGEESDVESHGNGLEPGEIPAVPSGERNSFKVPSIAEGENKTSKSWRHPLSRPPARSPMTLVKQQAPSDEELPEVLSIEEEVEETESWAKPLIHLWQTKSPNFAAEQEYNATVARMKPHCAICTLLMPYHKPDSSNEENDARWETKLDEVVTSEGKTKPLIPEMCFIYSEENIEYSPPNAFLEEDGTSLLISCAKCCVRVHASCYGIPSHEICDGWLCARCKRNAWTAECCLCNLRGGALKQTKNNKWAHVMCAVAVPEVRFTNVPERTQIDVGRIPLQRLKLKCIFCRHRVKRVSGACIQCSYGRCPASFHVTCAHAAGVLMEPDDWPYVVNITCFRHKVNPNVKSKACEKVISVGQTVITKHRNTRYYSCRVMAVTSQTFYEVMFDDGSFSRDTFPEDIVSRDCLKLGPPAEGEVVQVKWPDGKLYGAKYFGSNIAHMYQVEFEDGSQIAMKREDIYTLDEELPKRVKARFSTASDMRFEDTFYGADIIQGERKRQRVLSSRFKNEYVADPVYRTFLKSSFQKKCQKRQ
Description: as §1

[1] = tested on: demethylation of H3K4 (H3K4me3 mark) in U2OS cells; assay: Histone lysine demethylase immunofluorescence assay, non-transfected U2OS cells (H3K4me3 staining); conditions: Homo sapiens, 20 hours
Description: Histone Lysine Demethylase Immunofluorescence Assays for IC50 Value Determination, Non-Transfected Cells
U2OS cells were harvested and seeded into multi well plates into media containing compound. The media used was DMEM containing 5% FBS and pen/strep. 20 hours after incubation of cells with compounds, the cells were washed once in PBS, harvested by fixation with formaldehyde 4% aqueous solution, and washed 2 times in PBS. Subsequently, the cells were permeabilized in PBS with 0.2% Triton X-100 for 10 min at room temperature. Blocking was performed in PBS with 0.2% Triton X-100 and 5% FBS for 45 min at room temperature. The cells were incubated with αH3K4me3 primary antibody (Cell Signaling, #9751S) diluted 1:1000 in blocking solution over night at 4° C. After incubation with primary antibody, the cells were washed 3 times with PBS, incubated with secondary antibody diluted 1:1000 (Alexa fluor 594 goat anti rabbit IgG, Invitrogen, A11012) and Hoechst, 20 μg/ml (Sigma, 33342) in blocking solution, and washed again 3 times with PBS. Finally, PBS was added and high throughput imaging and analysis were performed by an IN Cell Analyzer 1000 (GE Healthcare). The IC50 values seen in Table 4 were based on an average measure of the staining of the H3K4me3 mark in cells.

IC50 (PLU1 (KDM5B)) [µM]	IC50 (GASC1 (KDM4C)) [µM]	IC50 [1] [nM]	SMILES
1 to 50	1 to 50	–	C=CCN(CC=C)C(=O)CNCc1cc(C(=O)O)ccn1 [drawing 309, 2-[({[bis(prop-2-en-1-yl)carbamoyl]methyl}amino)methyl]pyridine-4-carboxylic acid]
> 50	> 50	–	O=C(CNCc1cc(C(=O)O)ccn1)NC1CCN(Cc2ccc(-c3ccccc3)o2)CC1 [drawing 319, 2-({[({1-[(5-phenylfuran-2-yl)methyl]piperidin-4-yl}carbamoyl)methyl]amino}methyl)pyridine-4-carboxylic acid]
1 to 50	> 50	–	O=C(O)c1ccnc(CNCCCn2ccnc2)c1 [drawing 296, 2-({[3-(1H-imidazol-1-yl)propyl]amino}methyl) pyridine-4-carboxylic acid]
–	> 50	–	CN(CCC(N)=O)C(=O)CNCc1cc(C(=O)O)ccn1 [drawing 311, 2-[({[(2-carbamoylethyl)(methyl)carbamoyl]methyl}amino)methyl]pyridine-4-carboxylic acid]
1 to 50	> 50	–	O=C(O)c1ccnc(CNCC[C@@H]2CCCN2Cc2ccccc2)c1 [2-[({2-[(2S)-1-benzylpyrrolidin-2-yl]ethyl}amino)methyl] pyridine-4-carboxylic acid]
1 to 50	1 to 50	–	CN(CCCc1nccn1C)C(=O)CNCc1cc(C(=O)O)ccn1 [drawing 312, 2-{[({methyl[3-(1-methyl-1H-imidazol-2-yl)propyl]carbamoyl}methyl)amino]methyl}pyridine-4-carboxylic acid]
> 50	> 50	–	C#CCN(C)Cc1cc(C(=O)O)ccn1 [drawing 302, 2-{[methyl(prop-2-yn-1-yl)amino]methyl}pyridine-4-carboxylic acid]
< 1	1 to 50	–	CCOC(=O)c1ccccc1OC(=O)c1ccnc(CNCCCCN(CC)CC)c1 [drawing 330, 2-(ethoxycarbonyl) phenyl 2-({[4-(diethylamino)butyl]amino}methyl)pyridine-4-carboxylate]
> 50	1 to 50	–	CCCCN(C)C(=O)CNCc1cc(C(=O)O)ccn1 [drawing 306, 2-[({[butyl(methyl)carbamoyl]methyl}amino)methyl] pyridine-4-carboxylic acid]
> 50	> 50	–	O=C(O)c1ccnc(CNCCCNCCCN2CCCC2)c1 [drawing 310, 2-{[(3-{[3-(pyrrolidin-1-yl)propyl]amino}propyl)amino]methyl}pyridine-4-carboxylic acid]
–	1 to 50	–	O=C(O)c1ccnc(CNCc2ccco2)c1 [drawing 303, 2-{[(furan-2-ylmethyl)amino]methyl}pyridine-4-carboxylic acid]
–	–	< 1000	CCOC(=O)c1ccccc1OC(=O)c1ccnc(CNCC(=O)N(CC)CCN(C)C)c1 [drawing 235, 2-(ethoxycarbonyl)phenyl 2-{[({[2-(dimethylamino)ethyl](ethyl)carbamoyl}methyl)amino]methyl}pyridine-4-carboxylate]
–	–	< 1000	CCN(CCN(C)C)C(=O)CNCc1cc(C(=O)OC)ccn1 [drawing 246, methyl 2-{[({[2-(dimethylamino)ethyl](ethyl)carbamoyl}methyl)amino]methyl}pyridine-4-carboxylate]
–	–	1000 to 50000	CCN(CCN(C)C)C(=O)CNCc1cc(C(=O)Nc2ncco2)ccn1 [drawing 252, 2-{[({[2-(dimethylamino)ethyl](ethyl)carbamoyl}methyl)amino]methyl}-N-(1,3-oxazol-2-yl)pyridine-4-carboxamide]
–	–	< 1000	C=CC(CCN(C)C(=O)C(F)(F)F)OC(=O)c1ccnc(CNCC(=O)N(CC)CCN(C)C)c1 (centres unmarked) [drawing 243, 5-(2,2,2-trifluoro-N-methylacetamido)pent-1-en-3-yl 2-{[({[2-(dimethylamino)ethyl](ethyl)carbamoyl}methyl)amino]methyl}pyridine-4-carboxylate]
–	–	1000 to 50000	COC(=O)c1ccnc(CNCCCN2CCCC2)c1 [drawing 224, methyl 2-({[3-(pyrrolidin-1-yl)propyl]amino}methyl)pyridine-4-carboxylate]
–	–	< 1000	CCCCCCCCCCCCCCCC(=O)OCC(COC(=O)CCCCCCCCCCCCCCC)OC(=O)c1ccnc(CNCC(=O)N(CC)CCN(C)C)c1 [drawing 244, 2-(2-{[({[2-(dimethylamino)ethyl](ethyl)carbamoyl}methyl)amino]methyl}pyridine-4-carbonyloxy)-3-(hexadecanoyloxy)propyl hexadecanoate]
–	–	1000 to 50000	CCN(CC)CCCCNCc1cc(C(=O)O)ccn1 [drawing 225, 2-({[4-(diethylamino)butyl]amino}methyl) pyridine-4-carboxylic acid]
–	–	< 1000	CCN(CCN(C)C)C(=O)CNCc1cc(C(=O)OC(CCNC(=O)C(F)(F)F)CC(=O)OC(C)C)ccn1 (centres unmarked) [drawing 250, propan-2-yl 3-(2-{[({[2-(dimethylamino)ethyl](ethyl)carbamoyl}methyl)amino]methyl}pyridine-4-carbonyloxy)-5-(trifluoroacetamido)pentanoate]
–	–	1000 to 50000	CCN(CC)CCCCNCc1cc(C(=O)OCCCN(C)C)ccn1 [drawing 230, 3-(dimethylamino)propyl 2-({[4-(diethylamino)butyl]amino}methyl) pyridine-4-carboxylate]
